pEC50, pIC50: −log10 of the molar value.
What was measured:
Glucocorticoid receptor = target: T1, Glucocorticoid receptor (Homo sapiens, UniProt P04150)
T1 sequence (P04150 whole entry): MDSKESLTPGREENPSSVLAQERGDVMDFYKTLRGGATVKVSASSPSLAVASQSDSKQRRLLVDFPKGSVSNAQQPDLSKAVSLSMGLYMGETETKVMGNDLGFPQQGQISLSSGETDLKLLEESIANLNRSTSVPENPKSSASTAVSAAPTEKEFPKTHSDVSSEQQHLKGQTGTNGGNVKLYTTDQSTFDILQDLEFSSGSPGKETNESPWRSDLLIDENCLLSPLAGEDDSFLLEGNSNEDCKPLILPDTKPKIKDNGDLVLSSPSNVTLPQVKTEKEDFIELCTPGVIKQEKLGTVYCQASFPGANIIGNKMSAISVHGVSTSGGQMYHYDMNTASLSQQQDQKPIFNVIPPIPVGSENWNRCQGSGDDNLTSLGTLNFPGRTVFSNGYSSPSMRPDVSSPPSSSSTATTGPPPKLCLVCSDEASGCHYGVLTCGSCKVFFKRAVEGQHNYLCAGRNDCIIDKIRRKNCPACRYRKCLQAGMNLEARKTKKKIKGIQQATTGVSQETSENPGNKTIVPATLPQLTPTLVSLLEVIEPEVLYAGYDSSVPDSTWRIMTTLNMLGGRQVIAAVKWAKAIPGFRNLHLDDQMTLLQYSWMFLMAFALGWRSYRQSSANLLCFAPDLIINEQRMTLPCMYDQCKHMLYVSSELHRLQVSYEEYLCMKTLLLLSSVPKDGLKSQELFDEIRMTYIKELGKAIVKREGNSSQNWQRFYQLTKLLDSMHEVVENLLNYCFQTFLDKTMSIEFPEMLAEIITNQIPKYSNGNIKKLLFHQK
Description: Inhibition of human glucocorticoid receptor

Rattus norvegicus = species on record: Rattus norvegicus; assay: Transactivation activity of glutamine synthase in rat skeletal muscle cells relative to Dexamethasone; format: cell-based
[1] = target: T2, Interstitial collagenase (Homo sapiens) (UniProt P03956); assay: Inhibition of glucocorticoid-mediated human MMP1 expression in PMA stimulated A549 cells assessed as MMP1 protein level by ELISA relative to Dexamethasone; format: cell-based; set-up: scale not given: the % may be the effect or the level left
T2 sequence (whole entry): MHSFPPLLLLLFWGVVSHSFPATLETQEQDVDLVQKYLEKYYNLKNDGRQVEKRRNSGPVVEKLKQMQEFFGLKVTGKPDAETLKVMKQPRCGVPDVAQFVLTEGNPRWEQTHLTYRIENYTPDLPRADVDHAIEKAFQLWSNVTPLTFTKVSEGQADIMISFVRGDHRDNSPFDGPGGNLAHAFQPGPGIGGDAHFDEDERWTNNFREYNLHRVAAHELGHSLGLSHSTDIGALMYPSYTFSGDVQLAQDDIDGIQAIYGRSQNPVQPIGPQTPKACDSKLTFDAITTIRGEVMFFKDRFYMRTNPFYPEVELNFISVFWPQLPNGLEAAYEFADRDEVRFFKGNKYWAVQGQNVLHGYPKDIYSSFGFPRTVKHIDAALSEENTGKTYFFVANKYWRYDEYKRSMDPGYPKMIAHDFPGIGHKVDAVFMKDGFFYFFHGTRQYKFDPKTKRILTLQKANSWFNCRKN

[2] = Transactivation activity of glutamine synthase in rat skeletal muscle cells; format: cell-based
Progesterone receptor = target: T3, Progesterone receptor (Homo sapiens, UniProt P06401); assay: Inhibition of human progesterone receptor
T3 sequence (P06401 whole entry): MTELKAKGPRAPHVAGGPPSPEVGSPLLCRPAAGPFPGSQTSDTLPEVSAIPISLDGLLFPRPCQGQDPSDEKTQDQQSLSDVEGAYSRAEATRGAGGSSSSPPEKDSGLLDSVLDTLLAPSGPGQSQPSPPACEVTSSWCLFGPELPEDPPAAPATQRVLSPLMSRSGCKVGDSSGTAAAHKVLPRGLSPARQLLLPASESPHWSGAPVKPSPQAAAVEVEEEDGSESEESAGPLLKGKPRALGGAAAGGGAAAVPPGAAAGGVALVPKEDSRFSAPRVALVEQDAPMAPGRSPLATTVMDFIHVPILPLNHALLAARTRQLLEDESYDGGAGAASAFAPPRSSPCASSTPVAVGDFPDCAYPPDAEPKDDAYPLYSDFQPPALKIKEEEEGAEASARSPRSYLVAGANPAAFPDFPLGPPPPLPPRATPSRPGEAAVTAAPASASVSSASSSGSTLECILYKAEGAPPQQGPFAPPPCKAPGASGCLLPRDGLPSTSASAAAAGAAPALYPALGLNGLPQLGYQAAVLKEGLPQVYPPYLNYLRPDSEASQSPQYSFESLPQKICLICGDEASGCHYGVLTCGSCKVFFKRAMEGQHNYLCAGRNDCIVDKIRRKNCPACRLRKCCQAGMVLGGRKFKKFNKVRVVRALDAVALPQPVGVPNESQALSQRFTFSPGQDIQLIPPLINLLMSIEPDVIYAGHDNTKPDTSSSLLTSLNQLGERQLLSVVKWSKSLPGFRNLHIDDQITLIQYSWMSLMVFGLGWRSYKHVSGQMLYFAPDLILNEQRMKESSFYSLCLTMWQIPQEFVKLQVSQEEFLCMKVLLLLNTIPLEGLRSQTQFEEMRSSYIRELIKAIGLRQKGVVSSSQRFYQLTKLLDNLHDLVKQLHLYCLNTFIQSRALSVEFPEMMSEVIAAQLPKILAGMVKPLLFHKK

With `C[C@H]1C[C@H]2[C@@H]3CCC4=CC(=O)C=C[C@]4(C)[C@@]3(F)[C@@H](O)C[C@]2(C)[C@@]1(OC(=O)NCCC(C)(C)C)C(=O)CO` as the molecule, how does the pIC50 (Glucocorticoid receptor) read?
The pIC50 was 7.91.

And the Activity (Rattus norvegicus)?
Its Activity is 61.8%.

And the Activity [1]?
Its Activity is 56.3%.

And the pEC50 [2]?
Its pEC50 is 6.24.

With `C[C@H]1C[C@H]2[C@@H]3CCC4=CC(=O)C=C[C@]4(C)[C@@]3(F)[C@@H](O)C[C@]2(C)[C@@]1(OC(=O)NC(C)(C)CC(C)(C)C)C(=O)CO` as the molecule, how does the pIC50 (Glucocorticoid receptor) read?
Its pIC50 is 8.24.

What about the Activity (Rattus norvegicus) of the same molecule?
Its Activity is 50%.

And the Activity [1]?
Its Activity is 80.3%.

What about the pEC50 [2] of the same molecule?
Its pEC50 is 6.65.

What about the pIC50 (Progesterone receptor) of the same molecule?
The pIC50 was less than 6.00.

With `C[C@@H](NC(=O)O[C@]1(C(=O)CO)[C@@H](C)C[C@H]2[C@@H]3CCC4=CC(=O)C=C[C@]4(C)[C@@]3(F)[C@@H](O)C[C@@]21C)c1ccccc1` as the molecule, how does the pIC50 (Glucocorticoid receptor) read?
Its pIC50 is 8.28.

And the Activity (Rattus norvegicus)?
Its Activity is 92%.

What about the Activity [1] of the same molecule?
Its Activity is 87.5%.

What about the pEC50 [2] of the same molecule?
The pEC50 was 8.80.

With `C[C@H]1C[C@H]2[C@@H]3CCC4=CC(=O)C=C[C@]4(C)[C@@]3(F)[C@@H](O)C[C@]2(C)[C@@]1(OC(=O)NC12CC3CC(CC(C3)C1)C2)C(=O)CO` as the molecule, how does the pIC50 (Glucocorticoid receptor) read?
Its pIC50 is 8.24.

And the Activity [1]?
Its Activity is 84.1%.

With `CCCCCNC(=O)O[C@]1(C(=O)CO)[C@@H](C)C[C@H]2[C@@H]3CCC4=CC(=O)C=C[C@]4(C)[C@@]3(F)[C@@H](O)C[C@@]21C` as the molecule, how does the pIC50 (Glucocorticoid receptor) read?
The pIC50 was 8.68.

And the Activity (Rattus norvegicus)?
Its Activity is 60.3%.

And the Activity [1]?
Its Activity is 97.5%.

What about the pEC50 [2] of the same molecule?
Its pEC50 is 9.40.

With `COC(=O)[C@H](C)NC(=O)O[C@]1(C(=O)CO)[C@@H](C)C[C@H]2[C@@H]3CCC4=CC(=O)C=C[C@]4(C)[C@@]3(F)[C@@H](O)C[C@@]21C` as the molecule, how does the pIC50 (Glucocorticoid receptor) read?
Its pIC50 is 7.54.

And the Activity (Rattus norvegicus)?
The Activity was 103%.

And the Activity [1]?
The Activity was 107%.

And the pEC50 [2]?
The pEC50 was 7.33.

Which results are given for `CCC(C)NC(=O)O[C@]1(C(=O)CO)[C@@H](C)C[C@H]2[C@@H]3CCC4=CC(=O)C=C[C@]4(C)[C@@]3(F)[C@@H](O)C[C@@]21C` (stereo not given in full)?
pIC50 (Glucocorticoid receptor): 9.30; Activity (Rattus norvegicus): 54%; Activity [1]: 97.5%; pEC50 [2]: 9.52

With `C[C@H]1C[C@H]2[C@@H]3CCC4=CC(=O)C=C[C@]4(C)[C@@]3(F)[C@@H](O)C[C@]2(C)[C@@]1(OC(=O)NC1CCCC1)C(=O)CO` as the molecule, how does the pIC50 (Glucocorticoid receptor) read?
The pIC50 was 8.42.

And the Activity (Rattus norvegicus)?
Its Activity is 23%.

What about the Activity [1] of the same molecule?
Its Activity is 76.1%.
